Biological target: T1, CCR1 (Homo sapiens, UniProt P32246)
T1 construct: the THP-1 cell line, which expresses the endogenous CCR1 receptor; endogenous in cells; host or cells: THP-1 (human monocytic cell line); human PBMC or human monocytes are named as alternatives
T1 sequence (P32246 1-355): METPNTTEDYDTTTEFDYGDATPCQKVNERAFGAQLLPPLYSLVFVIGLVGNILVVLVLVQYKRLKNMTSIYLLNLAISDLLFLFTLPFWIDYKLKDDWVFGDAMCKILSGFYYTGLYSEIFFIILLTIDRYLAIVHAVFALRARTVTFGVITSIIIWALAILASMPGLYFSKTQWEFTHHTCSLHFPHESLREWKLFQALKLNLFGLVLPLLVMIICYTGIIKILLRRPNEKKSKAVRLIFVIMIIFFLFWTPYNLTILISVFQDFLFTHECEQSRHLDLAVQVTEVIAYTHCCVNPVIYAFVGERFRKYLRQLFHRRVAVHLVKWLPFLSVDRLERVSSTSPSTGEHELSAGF
Experiment: Antagonism of 125I-MIP-1α binding to human THP-1 cells (CCR1 binding)
Details: THP-1 cells expressing endogenous CCR1; 50 pM 125I-labeled human MIP-1α; room temperature, thirty minutes; read-out: CCR1 Binding Ki (n = 1 unless otherwise noted)
Procedure: Antagonism of MIP-1α Binding to Human THP-1 Cells
Compounds of the present invention have activity in the antagonism of MIP-1α binding to human THP-1 cells described here.
Millipore filter plates (#MABVN1250) are treated with 100 μl of binding buffer (0.5% bovine serum albumin, 20 mM HEPES buffer and 5 mM magnesium chloride in RPMI 1640 media) for thirty minutes at room temperature. To measure binding, 50 μl of binding buffer, with or without a known concentration of compound, is combined with 50 μl of ^125-I labeled human MIP-1α (to give a final concentration of 50 pM radioligand) and 50 μl of binding buffer containing 5×10^5 cells. Cells used for such binding assays can include the THP-1 cell line, which expresses the endogenous CCR1 receptor, or human peripheral blood mononuclear cells, isolated by Ficoll-Hypaque gradient centrifugation, or human monocytes (Weiner et al., J. Immunol. Methods, 36:89 (1980)). The mixture of compound, cells and radioligand is incubated at room temperature for thirty minutes. Plates are placed onto a vacuum manifold, vacuum applied, and the plates washed three times with binding buffer containing 0.5M NaCl. The plastic skirt is removed from the plate, the plate allowed to air dry, the wells punched out and counted. […]

SMILES | Ki
CCC(NC(=O)C1CCCC1)C(O)C1CCN(c2ccc(Cl)cc2)CC1 (single isomer, unassigned) [Example 2, N-(1-(1-(4-Chlorophenyl)piperidin-4-yl)-1-hydroxybutan-2-yl)cyclopentanecarboxamide] | 354 nM
CCC(NC(=O)C1CCCC1)C(O)C1CCN(c2ccc(Cl)cc2)CC1 (single isomer, unassigned) [Example 1, N-(1-(1-(4-Chlorophenyl)piperidin-4-yl)-1-hydroxybutan-2-yl)cyclopentanecarboxamide] | 930 nM
